Assay results from patent US20240400584A1, “COMPOUNDS AND METHODS FOR MODULATING SPLICING” (REMIX THERAPEUTICS INC., priority 2021, published 2024).

The compounds below were run on HiBit-tagged MYB in K562 cells (assay: HiBiT protein abundance assay, MYB). Conditions: HiBiT-modified K562 cells, 24 hours, luminescence.
Assay type: cell-based, human
Method: Compounds described herein were used to screen for effects on quantitative protein abundance using a HiBit assay system (Promega). Quantitative protein abundance was determined by measuring the protein levels of HiBit-tagged protein targets expressed in cell culture via luminescence using the Nano-Glo HiBiT Lytic Detection System, which uses a split complementation assay format to reconstitute NanoBiT enzyme to generate a luminescent signal. A protein abundance assay was developed such that endogenous protein targets could be modified with the HiBiT peptide tag and their abundance could be assessed after compound treatment. Briefly, K562 cell lines containing a HiBiT-modification were treated with various compounds described herein (e.g., compounds of Formulas (I)). After treatment for 24 hours, the protein abundance of a specific target was determined by measuring luminescence.
Cells were maintained in IMDM with 10% FBS. Before the assay, cells were diluted with […] growth media (IMDM+[…] media) and were seeded in a 384-well plate at a density of 10000 cells/well (for each cell line listed in Table 8). Each compound was prepared as a 10-point 3-fold serial dilution in DMSO with the top dose at a final concentration of 10 μM in the well. Unmodified K562 cells were added at the previously specified density with DMSO to serve as an assay baseline and positive control (PC) and DMSO only with the respective modified cell lines was added to the negative control (NC) columns. Final DMSO concentration was kept at or below 0.25% o. Treated cell plates were placed in an incubator at 37° C. with […] for 24 hours. After 24 hours, 25 μL of Complete HiBit Lytic reagent was added to each well at room temperature (e.g. one plate requiring 10 mL Lytic Buffer, 100 μL LgBiT Protein, 200 μL Lytic Substrate), shaken for 5 minutes at 600 RPM, then left to sit for 10 minutes for signal to stabilize before reading on a Spark Cyto plate reader (Tecan) with a 500 ms measurement time.
To determine compound effects on protein abundance of each target in Table 9, the percent response for each respective cell line was calculated at each compound concentration as follows:
For the normalized response at each concentration, a four-parameter logistical regression was fit to the data and the response was interpolated at the […] to determine a concentration for protein abundance at 50% o (IC50) the untreated control.

Row | Compound | IC50 [nM]
1 | C[C@@H]1C[C@H](N(C)c2ccc3c(c2)OCc2cc(-c4cn[nH]c4)ccc2-3)CCN1 [Compound 101] | 1000 to 10000
2 | C[C@H]1C[C@H](N(C)c2ccc3c(c2)OCc2cc(-c4cn[nH]c4)ccc2-3)CCN1 [Compound 102] | 1000 to 10000
3 | CN(c1ccc2c(c1)OCc1cc(-c3cn[nH]c3)ccc1-2)[C@@H]1C[C@H]2CC[C@@H](C1)N2 [Compound 104] | 1000 to 10000
4 | CN(c1ccc2c(c1)OCc1cc(-n3cccn3)ccc1-2)[C@@H]1C[C@H]2CC[C@@H](C1)N2 [Compound 105] | 1000 to 10000
5 | CN(c1ccc2c(n1)OCc1cc(-c3cn[nH]c3)ccc1-2)[C@@H]1C[C@H]2CC[C@@H](C1)N2 [Compound 108] | < 100
6 | CN(c1ccc2c(c1)CCOc1cc(-n3cccn3)ccc1-2)[C@@H]1C[C@H]2CC[C@@H](C1)N2 [Compound 113] | 1000 to 10000
7 | CN(c1ccc2c(n1)OCc1cc(-c3cn[nH]c3)ccc1-2)C1CCNCC1 [Compound 116] | 1000 to 10000
8 | CN(c1ccc2c(c1)COc1cc(-n3cccn3)ccc1-2)C1CC(C)(C)NC(C)(C)C1 [Compound 117] | 1000 to 10000
9 | CC1(C)CC(Nc2ccc3c(c2)COc2cc(-n4cccn4)ccc2-3)CC(C)(C)N1 [Compound 118] | 1000 to 10000
10 | CN(c1ccc2c(n1)COc1cc(-c3cn[nH]c3)ccc1-2)[C@@H]1C[C@H]2CC[C@@H](C1)N2 [Compound 121] | 1000 to 10000
11 | CN(c1ccc2c(n1)COc1cc(-n3cccn3)ccc1-2)[C@@H]1C[C@H]2CC[C@@H](C1)N2 [Compound 124] | 1000 to 10000
12 | CN(c1ccc2c(n1)COc1cc(-n3cccn3)ccc1-2)C1CC(C)(C)NC(C)(C)C1 [Compound 125] | 100 to 1000
13 | CN(c1ccc2c(n1)CCOc1cc(-n3cccn3)ccc1-2)C1CC(C)(C)NC(C)(C)C1 [Compound 129] | > 10000
14 | CC1(C)CC(Nc2ccc3c(n2)COc2cc(-n4cccn4)ccc2-3)CC(C)(C)N1 [Compound 134] | 1000 to 10000
15 | CN(c1cnc2c(n1)OCc1cc(-c3cn[nH]c3)ccc1-2)C1CC(C)(C)NC(C)(C)C1 [Compound 142] | 1000 to 10000
16 | c1cc2c(cc1-c1cn[nH]c1)COc1nc(N[C@@H]3C[C@H]4CC[C@@H](C3)N4)cnc1-2 [Compound 143] | 1000 to 10000
17 | CN(c1cnc2c(n1)OCc1cc(-c3cn[nH]c3)ccc1-2)[C@@H]1C[C@H]2CC[C@@H](C1)N2 [Compound 144] | 100 to 1000
18 | CN(c1ccc2c(n1)OCCc1cc(-c3cn[nH]c3)ccc1-2)C1CC(C)(C)NC(C)(C)C1 [Compound 145] | 1000 to 10000
19 | CN(c1ccc2c(n1)OCCc1cc(-c3cn[nH]c3)ccc1-2)[C@@H]1C[C@H]2CC[C@@H](C1)N2 [Compound 146] | 1000 to 10000
20 | CN(c1ccc2c(n1)OCc1cc(-c3cn[nH]c3)ccc1-2)C1CC(C)(C)NC(C)(C)C1 [Compound 147] | 100 to 1000
21 | CN(c1ccc2c(n1)OCc1cc(-n3cccn3)ccc1-2)C1CC(C)(C)NC(C)(C)C1 [Compound 148] | 1000 to 10000
22 | CN(c1ccc2c(n1)OCc1cc(-n3cccn3)ccc1-2)[C@@H]1C[C@H]2CC[C@@H](C1)N2 [Compound 149] | 100 to 1000
23 | CN(c1ccc2c(n1)OCc1cc(-n3nccn3)ccc1-2)[C@@H]1C[C@H]2CC[C@@H](C1)N2 [Compound 151] | 100 to 1000
24 | CN(c1ccc2c(n1)OCc1cc(-n3ccnn3)ccc1-2)[C@@H]1C[C@H]2CC[C@@H](C1)N2 [Compound 152] | 100 to 1000
25 | CN(c1ccc2c(n1)OCc1cc(-c3ccn(C)c(=O)c3)ccc1-2)[C@@H]1C[C@H]2CC[C@@H](C1)N2 [Compound 153] | < 100

Row | Compound | IC50 [nM]
26 | Cc1[nH]ncc1-c1ccc2c(c1)COc1nc(N(C)[C@@H]3C[C@H]4CC[C@@H](C3)N4)ccc1-2 [Compound 154] | 100 to 1000
27 | Cc1ncc(-c2ccc3c(c2)COc2nc(N(C)[C@@H]4C[C@H]5CC[C@@H](C4)N5)ccc2-3)o1 [Compound 155] | 100 to 1000
28 | COc1cc(-c2ccc3c(c2)COc2nc(N(C)[C@@H]4C[C@H]5CC[C@@H](C4)N5)ccc2-3)ccn1 [Compound 156] | 100 to 1000
29 | CN(c1ccc2c(n1)OCc1cc(-c3ccc(=O)[nH]c3)ccc1-2)[C@@H]1C[C@H]2CC[C@@H](C1)N2 [Compound 157] | 1000 to 10000
30 | CN(c1ccc2c(n1)OCc1cc(-c3ccc(=O)n(C)c3)ccc1-2)[C@@H]1C[C@H]2CC[C@@H](C1)N2 [Compound 158] | 100 to 1000
31 | COc1cc(-c2ccc3c(c2)COc2nc(N(C)[C@@H]4C[C@H]5CC[C@@H](C4)N5)ccc2-3)cnn1 [Compound 159] | < 100
32 | CN(c1ccc2c(n1)OCc1cc(-c3cnn(C)c(=O)c3)ccc1-2)[C@@H]1C[C@H]2CC[C@@H](C1)N2 [Compound 160] | 100 to 1000
33 | CN(c1ccc2c(n1)OCc1cc(-c3cnc(=O)[nH]c3)ccc1-2)[C@@H]1C[C@H]2CC[C@@H](C1)N2 [Compound 161] | > 10000
34 | CN(c1ccc2c(n1)OCc1cc(-c3cc(=O)n(C)cn3)ccc1-2)[C@@H]1C[C@H]2CC[C@@H](C1)N2 [Compound 162] | 100 to 1000
35 | CN(c1ccc2c(n1)OCc1cc(-n3ccnc3)ccc1-2)[C@@H]1C[C@H]2CC[C@@H](C1)N2 [Compound 163] | < 100
36 | Cc1cn(-c2ccc3c(c2)COc2nc(N(C)[C@@H]4C[C@H]5CC[C@@H](C4)N5)ccc2-3)cn1 [Compound 164] | 100 to 1000
37 | CC1(C)CC(Nc2ccc3c(n2)OCc2cc(-n4cccn4)ccc2-3)CC(C)(C)N1 [Compound 165] | 100 to 1000
38 | c1cnn(-c2ccc3c(c2)COc2nc(NC4CNC4)ccc2-3)c1 [Compound 166] | 1000 to 10000
39 | Cc1cnc(-c2ccc3c(c2)COc2nc(N(C)[C@@H]4C[C@H]5CC[C@@H](C4)N5)ccc2-3)o1 [Compound 206] | 100 to 1000
40 | c1cc2c(cc1-c1cn[nH]c1)COc1nc(N3CCC34CCNC4)ccc1-2 (stereo not shown) [Compound 207] | 1000 to 10000
41 | Cc1ncc(-c2ccc3c(c2)COc2nc(O[C@@H]4C[C@H]5C[C@@H](C4)N5)ccc2-3)s1 [Compound 208] | 100 to 1000
42 | c1cc2c(cc1-c1cn[nH]c1)COc1nc(O[C@@H]3C[C@H]4CC[C@@H](C3)N4)ccc1-2 [Compound 218] | < 100
43 | COc1cc(-c2ccc3c(c2)COc2nc(N4CCC(NC5(C)CCC5)C4)ccc2-3)cnn1 (stereo not shown) [Compound 285, 1-[8-(6-methoxypyridazin-4-yl)-6H-isochromeno[3,4-b]pyridin-3-yl]-N-(1-methylcyclobutyl)pyrrolidin-3-amine] | 100 to 1000
44 | CC(C)Oc1cnnc(-c2ccc3c(c2)COc2nc(N4CCC(NC(C)(C)C)C4)ccc2-3)c1 (stereo not shown) [Compound 286] | 1000 to 10000
45 | COc1cc(-c2ccc3c(c2)COc2nc(N4CCN[C@@H](C)C4)ccc2-3)cnn1 [Compound 287] | 100 to 1000
46 | COc1cc(-c2ccc3c(c2)COc2nc(O[C@@H]4C[C@H]5COC[C@@H](C4)N5)ccc2-3)cnn1 [Compound 290, (exo)-7-{[8-(6-methoxypyridazin-4-yl)-6H-isochromeno[3,4-b]pyridin-3-yl]oxy}-3-oxa-9-azabicyclo[3.3.1]nonane] | 100 to 1000
47 | COc1cc(-c2ccc3c(c2)COc2nc(N4CCC(N5CCCC5)C4)ccc2-3)cnn1 (stereo not shown) [Compound 305] | 1000 to 10000
48 | COc1cc(-c2ccc3c(c2)COc2nc(N4CCC(N(C)C)C4)ccc2-3)cnn1 (stereo not shown) [Compound 306, 1-[8-(6-methoxypyridazin-4-yl)-6H-isochromeno[3,4-b]pyridin-3-yl]-N,N-dimethylpyrrolidin-3-amine] | 1000 to 10000
49 | COc1cc(-c2ccc3c(c2)COc2nc(N4CCC(N(C)C5CCC5)C4)ccc2-3)cnn1 (stereo not shown) [Compound 307, N-cyclobutyl-1-[8-(6-methoxypyridazin-4-yl)-6H-isochromeno[3,4-b]pyridin-3-yl]-N-methylpyrrolidin-3-amine] | 100 to 1000
